Where two headings read alike, the source gives them in different places.
Assays:
Type in all cases: cell-based
[1] = biological target: T1, N-type calcium channels (α1B+α2δ+β1b cDNA subunits) (Rattus norvegicus, UniProt Q02294); experiment: Whole cell patch clamp, tonic and frequency dependent block, N-type channels in HEK 293 (Example 5); details: for % Block (100 nM) 0.03 Hz: 0.03 Hz (tonic block); for % Block (100 nM) 0.2 Hz: 0.2 Hz (frequency dependent block)
T1 construct: expressed in transfected cells
Description: (§1) N-type calcium channel blocking activity was assayed in human embryonic kidney cells, HEK 293, stably transfected with the rat brain N-type calcium channel subunits (α1B+α2δ+β1b cDNA subunits). Alternatively, N-type calcium channels (α1B+α2δ+β1b cDNA subunits), L-type channels (α1C+α2δ+β1b cDNA subunits) and P/Q-type channels (α1A+α2δ+β1b cDNA subunits) were transiently expressed in HEK 293 cells. Briefly, cells were cultured in Dulbecco's modified eagle medium (DMEM) supplemented with 10% fetal bovine serum, 200 U/ml penicillin and 0.2 mg/ml streptomycin at 37° C. with 5% CO2. At 85% confluency cells were split with 0.25% trypsin/1 mM EDTA and plated at 10% confluency on glass coverslips. At 12 hours the medium was replaced and the cells transiently transfected using a standard calcium phosphate protocol and the appropriate calcium channel cDNAs. Fresh DMEM was supplied and the cells transferred to 28° C./5% CO2. Cells were incubated for 1 to 2 days to whole cell recording.
(§2) Whole cell patch clamp experiments were performed using an Axopatch 200B amplifier (Axon Instruments, Burlingame, Calif.) linked to a personal computer equipped with pCLAMP software. The external and internal recording solutions contained, respectively, 5 mM BaCl2, 1 mM MgCl2, 10 mM HEPES, 40 mM TEACl, 10 mM glucose, 87.5 mM CsCl (pH 7.2) and 108 mM CsMS, 4 mM MgCl2, 9 mM EGTA, 9 mM HEPES (pH 7.2). Currents were typically elicited from a holding potential of −80 mV to +10 mV using Clampex software (Axon Instruments). Typically, currents were first elicited with low frequency stimulation (0.03 Hz) and allowed to stabilize prior to application of the compounds. The compounds were then applied during the low frequency pulse trains for two to three minutes to assess tonic block, and subsequently the pulse frequency was increased to 0.2 Hz to assess frequency dependent block. Data were analyzed using Clampfit (Axon Instruments) and SigmaPlot 4.0 (Jandel Scientific).

[2] = biological target: P/Q-type channels (α1A+α2δ+β1b cDNA subunits) (UniProt P54282); experiment: Whole cell patch clamp, tonic and frequency dependent block, P/Q-type channels in HEK 293 (Example 5)
Description: as §1, §2
(§3) Tables 2 and 3 show the results of similar experiments conducted with P/Q-type and L-type channels expressed in HEK 293 cells.

[3] = biological target: T2, L-type channels (α1C+α2δ+β1b cDNA subunits) (UniProt P22002); experiment: Whole cell patch clamp, tonic and frequency dependent block, L-type channels in HEK 293 (Example 5)
T2 construct: other: α1C (L-type), 100 nM, 0.03 Hz; other: α1C (L-type), 100 nM, 0.2 Hz; other: α1C (L-type), 0.03 Hz; other: α1C (L-type), 0.2 Hz
Description: as §1, §2, §3

[4] = biological target: T3, rat α1B+α2b+β1b channels (N-type channels) (Rattus norvegicus, UniProt Q02294); experiment: Whole cell patch recordings, N-type calcium channel block (Examples 1 and 4); details: block of N-type calcium channels, HEK cells, 5 mM barium as charge carrier
T3 construct: expressed in transfected cells
Description: Antagonist activity was measured using whole cell patch recordings on human embryonic kidney cells either stably or transiently expressing rat α1B+α2b+β1b channels (N-type channels) with 5 mM barium as a charge carrier.
For transient expression, host cells, such as human embryonic kidney cells, HEK 293 (ATCC# CRL 1573) were grown in standard DMEM medium supplemented with 2 mM glutamine and 10% fetal bovine serum. HEK 293 cells were transfected by a standard calcium-phosphate-DNA coprecipitation method using the rat α1B+β1b+α2δ N-type calcium channel subunits in a vertebrate expression vector (for example, see Current Protocols in Molecular Biologyl ).
After an incubation period of from 24 to 72 hrs the culture medium was removed and replaced with external recording solution (see below). Whole cell patch clamp experiments were performed using an Axopatch 200B amplifier (Axon Instruments, Burlingame, Calif.) linked to an IBM compatible personal computer equipped with pCLAMP software. Borosilicate glass patch pipettes (Sutter Instrument Co., Novato, Calif.) were polished (Microforge, Narishige, Japan) to a resistance of about 4 MΩ when filled with cesium methanesulfonate internal solution (composition in MM: 109 CsCH3SO4, 4 MgCl2, 9 EGTA, 9 HEPES, pH 7.2). Cells were bathed in 5 mM Ba^++ (in mM: 5 BaCl2, 1 MgCl2, 10 HEPES, 40 tetraethylammonium chloride, 10 glucose, 87.5 CsCl pH 7.2). Current data shown were elicited by a train of 100 ms test pulses at 0.066 Hz from −100 mV and/or −80 mV to various potentials (min. −20 mV, max. +30 mV). Drugs were perfused directly into the vicinity of the cells using a microperfusion system.
Normalized dose-response curves were fit (Sigmaplot 4.0, SPSS Inc., Chicago, Ill.) by the Hill equation to determine IC50 values. Steady-state inactivation curves were plotted as the normalized test pulse amplitude following 5 s inactivating prepulses at +10 mV increments. Inactivation curves were fit (Sigmaplot 4.0) with the Boltzman equation, Ipeak (normalized)=1/(1+exp((V−Vh)z/25.6)), where V and Vh are the conditioning and half inactivation potentials, respectively, and z is the slope factor.

[5] = Table 4 summary, 0.2 Hz, N-type, unit not given in Table 4 (μM in Table 1), read-out: N (IC50 values)
[6] = α1B (N-type), 0.03 Hz, read-out: Estimated IC50 (μM) 0.03 Hz
[7] = α1B (N-type), 0.2 Hz, read-out: Estimated IC50 (μM) 0.2 Hz
[8] = Table 4 summary, 0.2 Hz, P/Q-type, unit not given in Table 4 (μM in Table 2), read-out: P/Q (IC50 values)
[9] = α1A (P/Q-type), 0.03 Hz, read-out: Estimated IC50 (μM) 0.03 Hz
[10] = α1A (P/Q-type), 0.2 Hz, read-out: Estimated IC50 (μM) 0.2 Hz
[11] = Table 4 summary, 0.2 Hz, L-type, unit not given in Table 4 (μM in Table 3), read-out: L (IC50 values)
[12] = α1C (L-type), 0.03 Hz, read-out: Estimated IC50 (μM) 0.03 Hz
[13] = α1C (L-type), 0.2 Hz, read-out: Estimated IC50 (μM) 0.2 Hz

T3 sequence (Q02294 whole entry): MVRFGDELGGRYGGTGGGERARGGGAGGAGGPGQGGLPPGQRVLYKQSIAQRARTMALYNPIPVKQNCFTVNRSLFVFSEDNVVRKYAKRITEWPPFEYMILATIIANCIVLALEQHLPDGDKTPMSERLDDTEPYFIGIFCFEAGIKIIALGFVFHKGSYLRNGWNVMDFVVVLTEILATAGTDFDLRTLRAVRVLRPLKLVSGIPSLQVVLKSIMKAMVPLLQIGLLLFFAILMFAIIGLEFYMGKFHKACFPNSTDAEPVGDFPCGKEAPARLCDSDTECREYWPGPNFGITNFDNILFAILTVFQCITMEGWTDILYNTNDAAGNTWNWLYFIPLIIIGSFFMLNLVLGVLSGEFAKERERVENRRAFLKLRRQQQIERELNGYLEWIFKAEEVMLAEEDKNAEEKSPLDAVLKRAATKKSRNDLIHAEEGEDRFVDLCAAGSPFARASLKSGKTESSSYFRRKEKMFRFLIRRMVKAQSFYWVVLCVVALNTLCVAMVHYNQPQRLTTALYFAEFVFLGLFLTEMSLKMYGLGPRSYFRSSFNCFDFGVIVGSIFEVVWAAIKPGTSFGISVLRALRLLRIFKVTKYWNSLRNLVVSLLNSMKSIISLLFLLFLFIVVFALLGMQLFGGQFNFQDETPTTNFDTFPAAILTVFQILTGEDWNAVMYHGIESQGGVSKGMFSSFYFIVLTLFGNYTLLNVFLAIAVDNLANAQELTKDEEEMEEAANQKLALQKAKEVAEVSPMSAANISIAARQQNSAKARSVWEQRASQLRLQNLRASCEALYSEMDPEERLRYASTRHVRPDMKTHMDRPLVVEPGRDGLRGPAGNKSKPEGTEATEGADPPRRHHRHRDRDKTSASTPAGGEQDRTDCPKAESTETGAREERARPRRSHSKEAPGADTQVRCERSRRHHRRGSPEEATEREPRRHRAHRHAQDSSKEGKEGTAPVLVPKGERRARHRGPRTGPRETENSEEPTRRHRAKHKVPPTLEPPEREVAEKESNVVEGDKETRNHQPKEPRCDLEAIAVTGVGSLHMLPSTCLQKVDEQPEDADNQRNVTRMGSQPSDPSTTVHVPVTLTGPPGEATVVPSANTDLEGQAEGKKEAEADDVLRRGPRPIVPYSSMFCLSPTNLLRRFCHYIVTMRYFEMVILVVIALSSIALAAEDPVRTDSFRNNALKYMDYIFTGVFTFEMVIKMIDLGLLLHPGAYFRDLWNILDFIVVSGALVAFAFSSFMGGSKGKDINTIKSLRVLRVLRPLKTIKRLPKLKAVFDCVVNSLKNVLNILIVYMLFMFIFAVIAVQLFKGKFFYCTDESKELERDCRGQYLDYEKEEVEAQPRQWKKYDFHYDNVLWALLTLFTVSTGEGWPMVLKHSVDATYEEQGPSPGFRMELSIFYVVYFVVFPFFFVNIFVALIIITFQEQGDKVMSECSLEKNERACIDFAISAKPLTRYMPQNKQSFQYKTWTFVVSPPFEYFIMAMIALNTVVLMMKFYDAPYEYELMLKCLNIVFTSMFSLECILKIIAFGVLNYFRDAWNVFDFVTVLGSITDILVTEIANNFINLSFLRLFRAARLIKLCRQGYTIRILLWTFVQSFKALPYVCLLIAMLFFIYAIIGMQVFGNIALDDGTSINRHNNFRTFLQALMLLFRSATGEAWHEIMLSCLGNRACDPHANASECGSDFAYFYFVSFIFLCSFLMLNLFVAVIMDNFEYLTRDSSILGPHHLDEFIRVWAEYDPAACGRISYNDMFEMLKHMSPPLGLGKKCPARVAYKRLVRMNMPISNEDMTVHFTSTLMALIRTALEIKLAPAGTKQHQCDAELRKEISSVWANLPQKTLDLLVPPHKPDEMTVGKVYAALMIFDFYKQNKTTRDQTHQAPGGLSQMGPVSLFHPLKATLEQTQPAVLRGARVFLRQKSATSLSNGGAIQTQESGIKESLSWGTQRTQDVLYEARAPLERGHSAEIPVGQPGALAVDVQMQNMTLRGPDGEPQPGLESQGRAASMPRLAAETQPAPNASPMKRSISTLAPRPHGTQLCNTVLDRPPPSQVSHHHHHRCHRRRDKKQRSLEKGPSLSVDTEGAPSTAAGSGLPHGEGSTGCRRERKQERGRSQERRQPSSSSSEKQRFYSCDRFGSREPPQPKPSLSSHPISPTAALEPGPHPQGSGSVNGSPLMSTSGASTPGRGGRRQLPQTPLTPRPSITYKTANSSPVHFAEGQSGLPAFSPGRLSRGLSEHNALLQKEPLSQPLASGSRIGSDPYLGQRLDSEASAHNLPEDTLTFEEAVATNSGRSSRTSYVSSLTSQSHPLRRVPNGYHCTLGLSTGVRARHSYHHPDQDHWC
T3 sequence (P54290 25-944 partner limits assumed): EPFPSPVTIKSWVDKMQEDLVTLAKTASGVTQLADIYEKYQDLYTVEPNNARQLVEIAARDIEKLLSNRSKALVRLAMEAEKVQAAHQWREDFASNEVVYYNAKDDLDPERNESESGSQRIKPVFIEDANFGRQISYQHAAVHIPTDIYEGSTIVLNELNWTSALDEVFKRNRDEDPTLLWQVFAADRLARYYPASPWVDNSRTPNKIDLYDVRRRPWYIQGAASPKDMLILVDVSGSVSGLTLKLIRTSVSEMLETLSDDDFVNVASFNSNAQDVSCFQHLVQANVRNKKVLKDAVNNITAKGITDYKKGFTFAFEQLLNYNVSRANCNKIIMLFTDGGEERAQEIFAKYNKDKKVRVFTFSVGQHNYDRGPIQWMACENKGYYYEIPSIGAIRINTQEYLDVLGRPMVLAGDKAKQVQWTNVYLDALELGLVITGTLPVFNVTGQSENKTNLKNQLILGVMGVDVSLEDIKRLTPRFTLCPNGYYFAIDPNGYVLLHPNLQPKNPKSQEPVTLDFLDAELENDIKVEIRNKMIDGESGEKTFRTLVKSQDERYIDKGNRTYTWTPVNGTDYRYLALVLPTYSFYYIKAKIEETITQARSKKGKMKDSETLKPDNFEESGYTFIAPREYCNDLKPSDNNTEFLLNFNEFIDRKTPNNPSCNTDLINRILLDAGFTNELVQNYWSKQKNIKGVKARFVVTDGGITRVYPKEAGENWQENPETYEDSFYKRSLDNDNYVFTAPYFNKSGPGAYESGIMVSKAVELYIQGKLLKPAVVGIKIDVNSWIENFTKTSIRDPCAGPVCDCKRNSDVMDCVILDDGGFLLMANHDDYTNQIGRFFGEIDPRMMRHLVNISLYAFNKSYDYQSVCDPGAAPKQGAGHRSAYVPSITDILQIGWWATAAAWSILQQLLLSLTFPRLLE
T3 sequence (P54290 945-1091 partner limits assumed): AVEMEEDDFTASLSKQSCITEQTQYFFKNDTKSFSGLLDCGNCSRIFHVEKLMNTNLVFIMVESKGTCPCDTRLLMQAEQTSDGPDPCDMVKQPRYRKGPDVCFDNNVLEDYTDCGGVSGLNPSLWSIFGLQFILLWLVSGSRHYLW
T3 sequence (P54283 whole entry partner): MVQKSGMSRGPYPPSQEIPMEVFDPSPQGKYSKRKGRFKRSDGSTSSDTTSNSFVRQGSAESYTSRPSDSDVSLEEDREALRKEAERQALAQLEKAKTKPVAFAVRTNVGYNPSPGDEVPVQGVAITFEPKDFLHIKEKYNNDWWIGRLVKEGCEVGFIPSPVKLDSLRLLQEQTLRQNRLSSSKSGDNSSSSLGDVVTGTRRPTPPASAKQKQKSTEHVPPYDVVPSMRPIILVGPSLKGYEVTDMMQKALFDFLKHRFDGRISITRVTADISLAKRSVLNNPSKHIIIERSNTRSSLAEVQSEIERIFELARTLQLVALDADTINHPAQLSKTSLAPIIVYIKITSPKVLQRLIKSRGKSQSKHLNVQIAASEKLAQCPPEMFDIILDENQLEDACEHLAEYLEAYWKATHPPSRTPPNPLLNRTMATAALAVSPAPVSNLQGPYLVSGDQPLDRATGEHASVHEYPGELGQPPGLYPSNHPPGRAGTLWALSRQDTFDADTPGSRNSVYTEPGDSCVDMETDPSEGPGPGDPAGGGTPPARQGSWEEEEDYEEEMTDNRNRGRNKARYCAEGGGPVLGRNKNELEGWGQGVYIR
T1 sequence (Q02294 whole entry): as the sequence (Q02294 whole entry) above
T1 sequence (P54290 25-944 partner limits assumed): as the sequence (P54290 25-944 partner limits assumed) above
T1 sequence (P54290 945-1091 partner limits assumed): as the sequence (P54290 945-1091 partner limits assumed) above
T1 sequence (P54283 whole entry partner): as the sequence (P54283 whole entry partner) above

Compound	IC50 [1, 5]	% Block (100 nM) 0.03 Hz ([1]; α1B (N-type))	% Block (100 nM) 0.2 Hz ([1]; α1B (N-type))	IC50 [1, 6]	IC50 [1, 7]	IC50 [2, 8]	% Block (100 nM) 0.03 Hz ([2]; α1A (P/Q-type), 0.03 Hz)	% Block (100 nM) 0.2 Hz ([2]; α1A (P/Q-type), 0.2 Hz)	IC50 [2, 9]	IC50 [2, 10]	IC50 [3, 11]	% Block (100 nM) 0.03 Hz ([3]; α1C (L-type), 0.03 Hz)	% Block (100 nM) 0.2 Hz ([3]; α1C (L-type), 0.2 Hz)	IC50 [3, 12]	IC50 [3, 13]	IC50 [4]
COc1ccc(CN2CCN(C(c3ccc(F)cc3)c3ccc(F)cc3)CC2)c(OC)c1OC [39-36-1 Lomerizine, Lomerizine, reference compound]	0.09 µM	24%	54%	0.39 µM	0.09 µM	0.07 µM	25%	57%	0.46 µM	0.07 µM	0.15 µM	26%	44%	0.29 µM	0.15 µM	
COc1cc(C(=O)N2CCN(C(c3ccc(F)cc3)c3ccc(F)cc3)CC2)cc(OC)c1OC [39-36-2]	0.07 µM	29%	60%	0.32 µM	0.07 µM	0.11 µM	35%	52%	0.31 µM	0.11 µM	0.4 µM	11%	22%	2.1 µM	0.4 µM	
COc1ccc(/C=C/C(=O)N2CCN(C(=O)CCCCC(c3ccccc3)c3ccccc3)CC2)cc1 [SH-123A]	0.09 µM	19%	55%	0.47 µM	0.09 µM	0.07 µM	29%	61%	0.26 µM	0.07 µM	0.25 µM	21%	37%	0.62 µM	0.25 µM	
O=C(/C=C/c1ccc2c(c1)OCO2)N1CCN(C(=O)CCCCC(c2ccccc2)c2ccccc2)CC1 [SH-123B]	0.13 µM	9%	45%	1.27 µM	0.13 µM	0.13 µM	16%	44%	0.55 µM	0.13 µM	0.74 µM	8%	14%	2.06 µM	0.74 µM	
Nc1ccc(/C=C/C(=O)N2CCN(C(=O)CCCCC(c3ccccc3)c3ccccc3)CC2)cc1 [SH-134]	0.15 µM	20%	41%	0.44 µM	0.15 µM	0.12 µM	20%	45%	0.45 µM	0.12 µM	0.83 µM	11%	21%	1.6 µM	0.83 µM	
CC(=O)Nc1ccc(/C=C/C(=O)N2CCN(C(=O)CCCCC(c3ccccc3)c3ccccc3)CC2)cc1 [SH-136]	0.14 µM	14%	44%	0.63 µM	0.14 µM	0.15 µM	18%	42%	0.52 µM	0.15 µM	1.4 µM	4%	8%	2.8 µM	1.4 µM	
O=C(CCCCC(c1ccccc1)C1CCCCC1)N1CCN(CC=Cc2ccccc2)CC1 (stereo not shown) [Φ, Cy; CH(CH2)4CO; N; 1; CH═CHΦ]																3900 nM
c1ccc(CCN2CCN(CCCCCC(c3ccccc3)C3CCCCC3)CC2)cc1 (stereo not shown) [Φ, Cy; CH(CH2)5; N; 2; Φ]																3100 nM
O=C(CCCCCC(c1ccccc1)C1CCCCC1)N1CCN(C(c2ccccc2)c2ccccc2)CC1 (stereo not shown) [Φ, Cy; CH(CH2)5CO; N; 0; CHΦ2]																10200 nM
c1ccc(C(CN2CCN(CC(c3ccccc3)C3CCCCC3)CC2)c2ccccc2)cc1 (stereo not shown) [Φ, Cy; CHCH2; N; 1; CHΦ2]																20000 nM

Source: patent US7064128B2, “Preferentially substituted calcium channel blockers” (NeuroMed Technologies, Inc., priority 1998, dated 2006)
